Among the test systems are A498; ACHN; DU-145; HL-60; HOP-62; M14; MCF7; MOLT-4; NCI-H23; OVCAR-3; OVCAR-8; RXF 393; SF-539; SK-MEL-2; SK-MEL-5; SNB-75; SW-620; TK-10; UACC-257; UO-31.
Holding throughout (assay): growth of human tumour cells (NCI), 48 h

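Briefly, cells in 96-well plates were exposed to five compound concentrations for 48 h, and endpoints were estimated by linear interpolation. Here, GI50 denotes the concentration required for 50% inhibition of growth.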 The source made the active and inactive calls. Rule as the data show it: active = GI50 up to about 1.1 µM and inactive = higher.

As for `CC(C)/C(Cl)=N/OC(=O)Nc1ccc(OC(F)(F)F)cc1`, the GI50 in the assay with A498 is 18.6 µM (inactive); with ACHN it was 12.6 µM (inactive); in the assay with DU-145, 17.2 µM (inactive); with HL-60 it was 1.97 µM (inactive); in the assay with HOP-62, 17.7 µM (inactive); in the assay on M14 it was 3.78 µM (inactive). The GI50 in the assay with MCF7 is 13.5 µM (inactive); in the assay on MOLT-4 it was 2.86 µM (inactive); with NCI-H23, 15.7 µM (inactive); in the assay on OVCAR-3 it was 17.9 µM (inactive); in the assay on OVCAR-8, 18.1 µM (inactive); with RXF 393, 4.03 µM (inactive). For the same compound, the GI50 with SF-539 is 17.3 µM (inactive); in the assay with SK-MEL-2, 14.2 µM (inactive); with SK-MEL-5, 7.14 µM (inactive); with SNB-75, 15.6 µM (inactive); in the assay with SW-620, 1.77 µM (inactive); in the assay with TK-10, 15.9 µM (inactive). The results for the GI50 in the assay on UACC-257 and in the assay with UO-31 were 13.7 µM (inactive) and 10.8 µM (inactive), respectively.

Regarding `C(=N\c1ccc(-c2nc3ccccc3[nH]2)cc1)/c1cccs1`, the GI50 is > 100 µM (inactive) in the assay on A498; > 100 µM (inactive) in the assay on ACHN; > 100 µM (inactive) in the assay on DU-145; 22 µM (inactive) in the assay with HL-60; > 100 µM (inactive) in the assay with HOP-62; > 100 µM (inactive) in the assay with M14. Also, the GI50 in the assay with MCF7 is 8.91 µM (inactive); with MOLT-4, 29.9 µM (inactive); with NCI-H23 it was > 100 µM (inactive); in the assay with OVCAR-3, 49.7 µM (inactive); with OVCAR-8, 49.9 µM (inactive); in the assay on RXF 393, 56.6 µM (inactive). Also, the GI50 in the assay on SF-539 is > 100 µM (inactive); with SK-MEL-2, > 100 µM (inactive); in the assay on SK-MEL-5, 54 µM (inactive); with SNB-75, 81.1 µM (inactive); in the assay with SW-620 it was 96.4 µM (inactive); in the assay on TK-10, > 100 µM (inactive). For the same compound, the values for the GI50 in the assay with UACC-257 and in the assay with UO-31 were > 100 µM (inactive) and 31.2 µM (inactive), respectively.

For the compound `CCOC(=O)NNC(=O)NCc1ccccc1CNC(=O)NNC(=O)OCC`, the GI50 with A498, in the assay with DU-145, with HL-60, in the assay with M14, in the assay on MCF7 and in the assay on MOLT-4 was > 100 µM (inactive) each time. In addition, the GI50 in the assay with NCI-H23, with OVCAR-3, in the assay on OVCAR-8, in the assay on RXF 393, in the assay on SF-539 and in the assay with SK-MEL-2 was > 100 µM (inactive) in each case. Moreover, the GI50 in the assay with SK-MEL-5, in the assay on SNB-75, in the assay with SW-620, in the assay on TK-10, in the assay on UACC-257 and in the assay with UO-31 was > 100 µM (inactive) throughout.

Take `O=C1C(c2ccccc2)=C(c2ccccc2)C1(Cl)Cl`: the GI50 is 5.21 µM (inactive) in the assay with A498; 2.64 µM (inactive) in the assay on ACHN; 11.7 µM (inactive) in the assay on DU-145; 0.736 µM (active) in the assay on HL-60; 14.8 µM (inactive) with HOP-62; 2.22 µM (inactive) in the assay on M14. Besides, the GI50 in the assay on MCF7 is 2.61 µM (inactive); in the assay with MOLT-4, 2.55 µM (inactive); with NCI-H23 it was 2.75 µM (inactive); in the assay with OVCAR-3, 2.62 µM (inactive); in the assay with OVCAR-8, 2.64 µM (inactive); in the assay with RXF 393, 1.88 µM (inactive). The GI50 is 3.05 µM (inactive) in the assay with SF-539; 2.72 µM (inactive) in the assay on SK-MEL-2; 2.82 µM (inactive) in the assay on SK-MEL-5; 4.95 µM (inactive) in the assay with SNB-75; 2.75 µM (inactive) in the assay with SW-620; 0.667 µM (active) in the assay on TK-10. Further, the GI50 in the assay on UACC-257 was 2.71 µM (inactive); in the assay with UO-31, 3.61 µM (inactive).

As to `CCOc1cc(C2SCC(=O)N2c2nc3cc4sc(N5C(=O)CSC5c5ccc(O)c(OCC)c5)nc4cc3s2)ccc1O` (stereo not given), the GI50 with A498 is 48.6 µM (inactive); in the assay on ACHN, > 48.4 µM (inactive); in the assay on DU-145 it was 17.8 µM (inactive); with HL-60, 61.2 µM (inactive); in the assay with HOP-62, > 100 µM (inactive); in the assay with M14 it was > 100 µM (inactive). For the same compound, the GI50 with MCF7 is 9.86 µM (inactive); with MOLT-4, 4.61 µM (inactive); in the assay on NCI-H23, 9.59 µM (inactive); in the assay on OVCAR-3 it was > 100 µM (inactive); with OVCAR-8, > 68.7 µM (inactive); with RXF 393, > 100 µM (inactive). Besides, the GI50 was 15.7 µM (inactive) with SF-539; > 100 µM (inactive) in the assay on SK-MEL-2; 59.2 µM (inactive) in the assay with SK-MEL-5; > 100 µM (inactive) in the assay on SNB-75; 27.1 µM (inactive) in the assay with SW-620; > 100 µM (inactive) with TK-10. Also, the GI50 with UO-31 is 21.4 µM (inactive).

With `CN(C)C(=O)OC(Cn1cncn1)(Cn1cncn1)c1ccc(Cl)cc1Cl`, the GI50 with A498, in the assay on DU-145, with HL-60, in the assay on HOP-62, in the assay on M14 and with MCF7 was > 100 µM (inactive) throughout. The GI50 with MOLT-4 is > 100 µM (inactive); in the assay with OVCAR-3 it was > 100 µM (inactive); in the assay on OVCAR-8 it was > 100 µM (inactive); in the assay with RXF 393, > 100 µM (inactive); with SF-539, > 100 µM (inactive); with SK-MEL-2 it was 71.8 µM (inactive). Further, the GI50 with SK-MEL-5, in the assay on SNB-75, in the assay on SW-620, in the assay on TK-10, in the assay on UACC-257 and with UO-31 was > 100 µM (inactive) in each case.

Consider `CCOP(=O)(OCC)C(C)(CC)N/C(=N\C1=NC(C(F)(F)F)(C(F)(F)F)N=C(C(F)(F)F)O1)NC(NC(C)=O)(C(F)(F)F)C(F)(F)F` (stereo not given), for which the GI50 in the assay on A498 is 38.9 µM (inactive); in the assay on ACHN, 28.8 µM (inactive); in the assay on DU-145, 81.5 µM (inactive); in the assay on HL-60, 17.8 µM (inactive); in the assay with HOP-62, 36.1 µM (inactive); in the assay with M14 it was 22.9 µM (inactive). Besides, the GI50 in the assay on MCF7 is 21.9 µM (inactive); with MOLT-4, 13.2 µM (inactive); with NCI-H23 it was 18.2 µM (inactive); in the assay with OVCAR-3, 40.3 µM (inactive); in the assay on OVCAR-8 it was 36.6 µM (inactive); in the assay on RXF 393, 32.6 µM (inactive). The GI50 in the assay on SF-539 was 40.2 µM (inactive); in the assay with SK-MEL-2, 25.5 µM (inactive); in the assay with SK-MEL-5 it was 14.1 µM (inactive); with SNB-75, 2.3 µM (inactive); in the assay on SW-620 it was 56.8 µM (inactive); in the assay with TK-10, 46.9 µM (inactive). Further, the GI50 in the assay with UACC-257 was 31.8 µM (inactive).

In the case of `COc1ccc(C23OCC(Cc4cc(OC)c(OC)cc42)C3CO)cc1OC` (stereo not given), the GI50 in the assay with A498, in the assay with ACHN, in the assay on DU-145, in the assay with HL-60, with HOP-62 and in the assay with M14 was > 100 µM (inactive) throughout. Also, the GI50 with MCF7, with MOLT-4, with NCI-H23, with OVCAR-3, in the assay on RXF 393 and with SF-539 was > 100 µM (inactive) each time. The GI50 in the assay with SK-MEL-2, with SK-MEL-5, in the assay with SNB-75, in the assay on SW-620, in the assay with TK-10 and with UO-31 was > 100 µM (inactive) each time.

With `N=S(c1ccccc1[N+](=O)[O-])c1ccccc1[N+](=O)[O-]`, the GI50 with A498 was 28 µM (inactive); in the assay on ACHN, 1.22 µM (inactive); in the assay with DU-145, 2.64 µM (inactive); with HL-60, 0.933 µM (active); in the assay with HOP-62 it was 4.65 µM (inactive); in the assay on M14 it was 2.69 µM (inactive). For the same compound, the GI50 in the assay on MCF7 is 0.129 µM (active); in the assay on MOLT-4 it was 1.8 µM (inactive); in the assay on NCI-H23 it was 3.52 µM (inactive); in the assay with OVCAR-3 it was 0.839 µM (active); in the assay on OVCAR-8 it was 2.14 µM (inactive); in the assay with RXF 393, 2.69 µM (inactive). Further, the GI50 was 3.13 µM (inactive) in the assay with SF-539; 3.9 µM (inactive) in the assay on SK-MEL-2; 1.78 µM (inactive) in the assay on SK-MEL-5; 7.94 µM (inactive) in the assay with SNB-75; 3.84 µM (inactive) in the assay with TK-10; 2.33 µM (inactive) with UACC-257. The GI50 in the assay on UO-31 was 1.87 µM (inactive).

On to `Clc1ccc(Cc2nc3cc(Cl)c(Cl)cc3n2CC2CCCN3CCCCC23)cc1` (stereo not given), for which the GI50 in the assay on A498 was 14.4 µM (inactive); in the assay with ACHN, 10.1 µM (inactive); with DU-145 it was 12 µM (inactive); in the assay on HL-60, 5.55 µM (inactive); with HOP-62, 18.5 µM (inactive); in the assay with M14, 2.65 µM (inactive). The GI50 was 10.7 µM (inactive) in the assay on MCF7; 4.22 µM (inactive) in the assay on MOLT-4; 11 µM (inactive) with OVCAR-3; 12.8 µM (inactive) with OVCAR-8; 13.8 µM (inactive) in the assay with RXF 393; 10.4 µM (inactive) in the assay with SF-539. The GI50 with SK-MEL-2 was 16 µM (inactive); with SK-MEL-5, 11.3 µM (inactive); in the assay with SNB-75, 7.76 µM (inactive); with SW-620, 13.6 µM (inactive); in the assay with TK-10, 14.4 µM (inactive); in the assay on UACC-257, 3.81 µM (inactive). In addition, in the assay on UO-31, the GI50 is 0.285 µM (active).

Values taken from ChEMBL document CHEMBL1201862, “PubChem BioAssay data set” (2004).
